Assay results: ChEMBL document CHEMBL4007389, “Discovery and evaluation of inhibitors to the immunosuppressive enzyme indoleamine 2,3-dioxygenase 1 (IDO1): Probing the active site-inhibitor interactions” (Eur J Med Chem, 2017)
pIC50: −log10 of the molar value.

Key:
[1] = target: T1, Indoleamine 2,3-dioxygenase 1 (Homo sapiens, UniProt P14902); experiment: Inhibition of recombinant human IDO1 expressed in bacterial expression system using L-Tryptophan as substrate after 25 mins in absence of GSH and presence of tween20 by fluorescence assay
Target sequence in this assay (P14902 whole entry): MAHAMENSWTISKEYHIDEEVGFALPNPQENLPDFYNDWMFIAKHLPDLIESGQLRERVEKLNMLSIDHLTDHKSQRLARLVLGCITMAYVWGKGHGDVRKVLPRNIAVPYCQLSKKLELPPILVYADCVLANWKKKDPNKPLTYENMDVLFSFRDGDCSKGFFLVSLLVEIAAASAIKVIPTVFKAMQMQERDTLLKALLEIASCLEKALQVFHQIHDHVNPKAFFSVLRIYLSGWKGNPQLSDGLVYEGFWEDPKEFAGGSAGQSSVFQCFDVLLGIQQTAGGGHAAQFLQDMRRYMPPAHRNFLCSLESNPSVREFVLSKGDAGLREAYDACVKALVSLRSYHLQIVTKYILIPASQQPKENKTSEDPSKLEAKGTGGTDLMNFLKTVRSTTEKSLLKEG

[2] = target: Indoleamine 2,3-dioxygenase 1 (Homo sapiens, UniProt P14902, S167A)
Sequence of Indoleamine 2,3-dioxygenase 1 (Homo sapiens, UniProt P14902, S167A) (P14902 whole entry S167A): as the sequence (P14902 whole entry) above, with S167A counted along it

Homo sapiens = species on record: Homo sapiens; experiment: Selectivity ratio of IC50 for recombinant human IDO1 S167A mutant expressed in Escherichia coli SG13009(pREP4) to IC50 for recombinant human IDO1 expressed in bacterial expression system
[3] = target: T1, Indoleamine 2,3-dioxygenase 1; experiment: Inhibition of recombinant human IDO1 expressed in bacterial expression system using L-Tryptophan as substrate after 25 mins in absence of GSH and tween20 by fluorescence assay
Target sequence in this assay (P14902 whole entry): as the sequence (P14902 whole entry) above

[4] = target: T1, Indoleamine 2,3-dioxygenase 1; experiment: Inhibition of recombinant human IDO1 expressed in bacterial expression system using L-Tryptophan as substrate after 25 mins in presence of GSH and tween20 by fluorescence assay
Target sequence in this assay (P14902 whole entry): as above

[5] = target: T1, Indoleamine 2,3-dioxygenase 1; experiment: Inhibition of full length recombinant human His-tagged IDO1 expressed in mouse LLTC cells using L-tryptophan as substrate after 24 hrs; assay type: cell-based
Target sequence in this assay (P14902 whole entry): as above

[6] = Cytotoxicity against mouse LLTC cells assessed as reduction in cell viability after 24 hrs by MTT assay; assay type: cell-based; details: read-out: LC50
[7] = target: T1, Indoleamine 2,3-dioxygenase 1; experiment: Inhibition of full length recombinant human His-tagged IDO1 expressed in mouse LLTC cells using L-tryptophan as substrate after 24 hrs in presence of GSH; assay type: cell-based
Target sequence in this assay (P14902 whole entry): as above

LLTC cell line = experiment: Cytotoxicity against mouse LLTC cells assessed as reduction in cell viability after 24 hrs in presence of GSH by MTT assay; assay type: cell-based
[8] = target: T1, Indoleamine 2,3-dioxygenase 1; details: 40 uM
Target sequence in this assay (P14902 whole entry, looked up): as the sequence (P14902 whole entry) above

## Oc1nccc(SCc2ccc(Cl)cc2Cl)n1
[1]
  pIC50: 5.12
[2]
  pIC50: 4.70
Homo sapiens
  Ratio IC50: 3
[3]
  pIC50: 5.37
[4]
  pIC50: 6.12
[5]
  pIC50: 5.36
[6]
  CC50 at 24 h: > 117 µM
[7]
  pIC50: 5.52 to 6.70
LLTC cell line
  Activity: Non-Toxic
[8]
  inhibition: < 25%
